# Results as given in patent publication US5095037A, “Combined anti-inflammatory agent” (Nissho Corporation, priority 1989, dated 1992).
# Experiments:
# [1] = system: carrageenan-induced edema; test: Test Example 4: inhibitory effect on carrageenan-induced edema, various acid anti-inflammatory agents (Table 5); assay type: in vivo, Wister male rats; details: dose 4 mg/kg, single agent
# Experimental: (§1) The measurement of the volume was carried out according to the method of Fujimura et al. (see Iyakuhin Kaihatsu Kisokoza, Vol. 6, "Yakubutsu no Hyoka (1)" editted by Tsuda and Nogami, p 239-282, Kabushiki Kaisha Chizin-sha, 1971).
# (§2) The rate of inhibition (%) of the edema of the foot pad of each rat was calculated according to the following formula (III). [formula] MCEV: Average swollen rate of the foot pad 4 hours after the administration of carrageenan in the control group
# (§3) MTEV: Average swollen rate of the foot pad 4 hours after the administration of carrageenan in the drug-given group [formula] CEV: Volume of foot pad of each rat before the administration of carrageenan
# (§4) TEV: Volume of foot pad of each rat 4 hours after the administration of carrageenan
# (§5) With respect to each agent, the evaluation of the inhibitory effect on edema was carried out according to the following criteria: Synergistic effect was observed:
# (§6) Very great HA % + DG % ≤ ED %
# (§7) Great TD % ≤ ED % < HA % + DG %
# (§8) Small MD % < ED % < TD %
# (§9) No synergistic effect was observed:
# (§10) HA % : Inhibitory rate by the administration of sodium hyaluronate alone
# (§11) DG % : Inhibitory rate by the administration of the anti-inflammatory agent alone
# (§12) ED % : Inhibitory rate by the administration of the combined agent
# (§13) MD % : {The greater one between HA % and DG %} × 1.2
# (§14) TD % : HA % + DG % (1--HA %/100)
# The inhibitory effect on carrageenan-induced edema was investigated with respect to combined agents of sodium hyaluronate (molecular weight: 8 × 10^5) and various acid anti-inflammatory agents.
# (§15) Wister male rats weighing 240 to 255 (6 weeks old) were preliminarily bred for not less than 1 week. Eight rats were used in one group. A 1% solution of each test agent shown in Table 5 was administered subcutaneously into the right foot pad of each rat. Six hours after the administration, a 1% solution of carrageenen was administered subcutaneously as an irritating agent into the right foot pad of each rat in a dose of 0.1 ml/animal. The volume of the right foot pad was measured before and 4 hours after the administration of carrageenen. Then, the inhibitory effect on edema was evaluated in the same way as in Test Example 1.
# [2] = system: carrageenan-induced edema; test: Test Example 1: inhibitory effect on carrageenan-induced edema, foot pad, agent 6 h before carrageenan (Table 2); assay type: in vivo, Wister male rats
# Experimental: The inhibitory effect on carrageenan-induced edema was investigated as to combined agents of sodium hyaluronate (molecular weight: 8 ×10^5) and various anti-inflammatory agents.
# Wister male rats weighing 240 to 260 g (6 weeks old) were preliminarily bred for not less than 1 week. Eight rats were used in one group. Each test agent shown in Table 2 was dissolved or suspended in an isotonic phosphate buffer solution (pH 7.0) to give a 1% solution or suspension (hereinafter referred to as "1% solution"). The solution was administered subcutaneously into the right foot pad of each rat. Six hours after the administration, a 1% solution of carrageenan was administered subcutaneously as an irritating agent into the right foot pad of the rat in a dose of 0.1 ml/animal. The volume of the right foot pad was measured before and 4 hours after the administration of carrageenan. The rate of edema inhibition (hereinafter referred to as "inhibitory rate") by each test agent was calculated from the obtained measurements and thus the inhibitory effect on edema was evaluated.
# as §2, §3, §4, §5, §6, §7, §8, §9, §10, §11, §12, §13, §14
# [3] = system: carrageenan-induced edema; test: Test Example 6: prolonged inhibitory effect on carrageenan-induced edema, agent 16 h before carrageenan (Table 7); assay type: in vivo, Wister male rats
# Experimental: as §1, §2, §3, §4, §5, §6, §7, §8, §9, §10, §11, §12, §13, §14
# as §15, with “240 to 260 g (6 weeks” for “240 to 255 (6 weeks”, “in Table 7 was administered” for “in Table 5 was administered”, “each rat. Sixteen hours after” for “each rat. Six hours after”, “solution of carrageenan was administered” for “solution of carrageenen was administered”
# [4] = system: carrageenan-induced edema; test: Test Example 3: inhibitory effect on carrageenan-induced edema, varied ratio of diclofenac sodium to sodium hyaluronate (Table 4); assay type: in vivo, Wister male rats; details: dose 4 mg/kg; HA molecular weight 8 × 10^5
# Experimental: as §1, §2, §3, §4
# The inhibitory effect on carrageenan-induced edema was investigated with respect to combined agents of sodium hyaluronate (molecular weight: 8 × 10^5) and diclofenac sodium wherein the ratio of diclofenac sodium to sodium hyaluronate varied.
# Wister male rats weighing 235 to 260 g (6 weeks old) were preliminarily bred for not less than 1 week. Eight rats were used in one group. […] The volume of the right foot pad was measured before and 4 hours after the administration of carrageenen. Then, the inhibitory effect on edema was evaluated in the same way as in Test Example 1.
# ICR mice = test: Test Example 5: toxicity, number of dead mice 72 hours after subcutaneous administration (Table 6); assay type: in vivo; details: dose 40 mg/kg s.c., 5 mice per group
# Experimental: After preliminary breeding of mail ICR mice 5 weeks old weighing 23 to 28 g (5 mice per one group) for one week, a 1% solution of each test agent shown in Table 6 wa subcutaneously administered to the mice. The number of dead mice was counted 72 hours after the administration.
# The doses of the test agent used in this test were about ten times those used in Test Example 1.
# The molecular weight of sodium hyaluronate is 8 × 10^5. The
# doses in Table 6 mean the amounts (mg) administered per kg body weight.
# The dose values, to which the mark "+" is attached, as to the combined
# agents means the amounts of antiinflammatory agent added to 40 mg/kg of
# sodium hyaluronate (HA).
# [5] = system: movable range of joint (right knee); test: Test Example 7: inhibition of the damage to the movable range of joint, fixed right knee (Table 8); assay type: in vivo, Rabbits (New Zealand White); details: articular cavity; for curative effect (in words): Table 8; for Inhibitory rate (damage to the movable range of joint): dose 3.0 mg/kg, once per three days, one month, single agent
# Experimental: Rabbits (New Zealand White) weighing about 2 kg were preliminarily bred for not less than one week and healthy ones were selected (3 rabbits per group). The joint of right knee of each rabbit was fixed by applying a splint thereto and further completely fixed not so as to move by putting it in plaster. Then the rabbits were bred normally for one month.
# During the normal breading, a 1% solution of each test agent shown in Table 8 was administered using an injection needle of gauge No. 27 into the articular cavity of each rabbit except those of the control group in a dose of 0.3 ml/kg body weight once per three days.
# One day after the last administration, the splint and the plaster were removed and the movable range of the joint was measured with a protractor under anesthesia with Nembutal (trademark). The rate of inhibition of the damage to the movable range of joint with respect to each test agent was calculated from the obtained measurements and the curative effect was evaluated.
# The rate of inhibition of the damage to the movable range of joint was calculated according to the following formula (IV), and the evaluation of synergistic effect was conducted under the same condition as in Test Example 1. [formula] MCJV: Average movable range of joint with respect to the rabbits of the […] group
# MTJV: Average movable range of joint with respect to the rabbits of the […] group
# [6] = system: carrageenan-induced edema; test: Test Example 2: inhibitory effect on carrageenan-induced edema, sodium hyaluronates of different molecular weights (Table 3); assay type: in vivo, Wister male rats; details: dose 4.0 mg/kg
# Experimental: as §1, §2, §3, §4
# The inhibitory effect on carrageenan-induced edema was investigated as to combined agents of various grades of sodium hyaluronates having different molecular weights with diclofenac sodium.
# Wister male rats weighing 230 to 265 g (6 weeks old) were preliminarily bred for not less than 1 week. Eight rats were used in one group. A 1% solution of each test agent shown in Table 3 was administered subcutaneously into the right foot pad of each rat. Six hours after the administration, a 1% solution of carrageenan was administered subcutaneously as an irritating agent into the right foot pad of the rat in a dose of 0.1 ml/animal. The volume of the right foot pad was measured before and 4 hours after the administration of carrageenan. Then the inhibitory effect on edema was evaluated in the same way as in Test Example 1.
# [7] = dose 4.0 mg/kg, s.c. foot pad, single agent, 4 h after carrageenan
compound,measurement,setting,value
Cc1cccc(Nc2ccccc2C(=O)O)c1C [Mefenamic acid],Inhibitory rate (edema),[1],34.2%
CC(C)Cc1ccc(C(C)C(=O)O)cc1 (stereo not drawn) [Ibuprofen],Inhibitory rate (edema),[2]; [7],18.2%
O=C([O-])c1ccccc1O.[Na+] [Sodium salicylate],Inhibitory rate (edema),"[2]; rat, in vivo, sc, 50 mg/kg",46.6%
Cc1ccc(C(=O)c2ccc(CC(=O)O)n2C)cc1 [Tolmetin],Inhibitory rate (edema),[1],25.1%
COc1ccc2c(c1)c(CC(=O)O)c(C)n2C(=O)c1ccc(Cl)cc1 [Indometacin],Inhibitory rate (edema),[3]; dose 3.0 mg/kg,20%
same,Inhibitory rate (edema),"[2]; dose 1.2 mg/kg, s.c. foot pad, single agent, 4 h after carrageenan",12.9%
CN1C(C(=O)Nc2ccccn2)=C(O)c2ccccc2S1(=O)=O [Piroxicam],Inhibitory rate (edema),[2]; [7],34.6%
C[C@]12C=CC(=O)C=C1CC[C@@H]1[C@@H]2[C@@H](O)C[C@@]2(C)[C@H]1CC[C@]2(O)C(=O)CO [Prednisolone],Inhibitory rate (edema),"[2]; dose 0.5 mg/kg, s.c. foot pad, single agent, 4 h after carrageenan",21.7%
Sodium hyaluronate [Sodium hyaluronate (HA)],Inhibitory rate (edema),[3]; dose 4.0 mg/kg,30.0%
same,Inhibitory rate (edema),[4],25.9%
same,Inhibitory rate (edema),[1],23.9%
same,Number of dead mice,ICR mice,0
same,curative effect (in words),[5],some curative effect
same,Inhibitory rate (damage to the movable range of joint),[5],24.5%
same,Inhibitory rate (edema),[2]; [7],23.5%
same,Inhibitory rate (edema),[6]; molecular weight of HA 28 × 10^4,-36.4%
same,Inhibitory rate (edema),[6]; molecular weight of HA 58 × 10^4,17.9%
same,Inhibitory rate (edema),[6]; molecular weight of HA 80 × 10^4,29.9%
same,Inhibitory rate (edema),[6]; molecular weight of HA 210 × 10^4,43.2%
CC(=O)Oc1ccccc1C(=O)O [Aspirin],Inhibitory rate (edema),[1],14.6%
"CCCCC1C(=O)N(c2ccccc2)N(c2ccccc2)C1=O [Phenylbutazon, Phenylbutazone]",Inhibitory rate (edema),[2]; [7],46.1%
O=C(O)Cc1ccccc1Nc1c(Cl)cccc1Cl [Diclofenac sodium],Inhibitory rate (edema),[3]; dose 3.0 mg/kg,9.7%
same,curative effect (in words),[5],some curative effect
same,Inhibitory rate (damage to the movable range of joint),[5],17.3%
same,Inhibitory rate (edema),[2]; [7],16.9%
CC(C(=O)O)c1ccc2c(c1)Cc1cccnc1O2 (stereo not drawn) [Pranoprofen],Inhibitory rate (edema),[1],39.0%
C=CCOc1ccc(CC(=O)O)cc1Cl [Alclofenac],Inhibitory rate (edema),[1],22.9%
